Test results as given in patent US20240301322A1, “FUNCTIONALIZED BIODEGRADABLE SURFACTANTS AND METHODS USE” (Locus Solutions IPCo, LLC, priority 2023, published 2024).

How the values were obtained:
[1] = Surface tension at 1000 ppm; type: physicochemical
Procedure: (§1) Table 8 summarizes surface tension reduction at 1000 ppm and log reduction of P. aeruginosa at 0 and 10 min. (200 ppm) for two C12 cationic amino alcohol surfactants according to embodiments of the subject invention, LRO (R) and LKO (K), where LRO was produced through the coupling of a lauroyl chloride substrate and arginine ethyl ester and LKO was produced through the coupling of a lauroyl chloride substrate and lysine ethyl ester.
(§2) Table 9 summarizes surface tension reduction at 1000 ppm and log reduction of S. aureus and S. enterica at 0 and 10 min. (200 ppm) for four categories of cationic amino alcohol surfactants according to embodiments of the subject invention.

[2] = test system: Staphylococcus aureus (Gram-positive); assay: Microbial kill study, log reduction of Staphylococcus aureus; type: cell-based
Procedure: (§3) Studies were conducted to determine the antimicrobial capabilities of cationic arginine derivatized surfactants produced according to embodiments of the subject invention.
(§4) The test organisms were a mixture of Gram-negative and Gram-positive organisms, which served to validate the breadth of the spectrum of control and the utility of the technology for common pathogens of public health concern: Pseudomonas aeruginosa (Gram-negative), Staphylococcus aureus (Gram-positive) and Salmonella entericus (Gram-negative).
(§5) Test bacteria were grown at 32° C. for 24-48 hours in tryptic soy broth, then plated at a starting concentration of 10^7. PBS was used for dilution to achieve the desired cell concentration.
(§6) A stock solution of each antimicrobial treatment was created in water, which was then used to create each desired dilution for treatment: 25, 50, 200, 400, 500, 750, 1,000, 1,500, 2,000 and 4,000 ppm, in an appropriate volume of buffer. Buffers included 100 mM of citric acid, ammonium HCL, PBS or sodium bicarbonate.
(§7) The created cell dilution of 10^7 CFU/mL was mixed with either 100 uL to 900 uL of antimicrobial at the appropriate PPM, or 1-9 mL of antimicrobial at the appropriate PPM. The final concentration of the organism was […] once mixed with the antimicrobial.
(§8) The moment the organism was added to the antimicrobial, the timer was started for the desired time period (0, 2, 5, 6 or 10 min). At the end of the timer, the antimicrobial was neutralized, and dilutions were then plated onto TSA plates and incubated for 24-48 hours at 32° C.
(§9) The negative control comprised 0.1 mL from the organism stock plated onto a TSA plate. For the positive control a serial dilution was set up with a starting concentration of 400 PPM quaternary ammonium compound (QAC) and organism. Dilutions were plated at 102, 103 and 104 CFU/mL.
(§10) After 24 to 48 hours of incubation, plates were removed from the incubator and colony numbers were counted.
(§11) The below scale is commonly used in determining a compound's efficacy, where a greater than or equal to 6-fold logarithmic (≥6 log) reduction in less than 10 minutes is needed for disinfection.
as §2
(§12) The surfactants were produced through the coupling of octanoyl chloride (C8); decanoyl chloride (C10); lauroyl chloride (C12); myristyroyl chloride (C14); palmitoyl chloride (C16); or a linear sophorolipid (SLP), with: arginine ethyl ester (R), histidine ethyl ester (H) or lysine ethyl ester (K).

[3] = test system: Salmonella enterica (Gram-negative); assay: Microbial kill study, log reduction of Salmonella enterica; type: cell-based
Procedure: as §3, §4, §5, §6, §7, §8, §9, §10, §11, §2, §12

[4] = test system: Pseudomonas aeruginosa (Gram-negative); assay: Microbial kill study, log reduction of Pseudomonas aeruginosa; type: cell-based
Procedure: as §3, §4, §5, §6, §7, §8, §9, §10, §11, §1

[5] = test system: Staphylococcus aureus (G+); assay: Stability study at pH 7 over 4 days, log reduction of S. aureus; type: cell-based; conditions: pH 7, 100 ppm; for Activity Reduction S. aureus (G+) 100 ppm 5 min: loss of log reduction Day 0 to Day 4
Procedure: FIGS. 3A-3B depict a comparison of pH stability between lauryl arginine ethyl ester (LRE) and a cationic amino alcohol surfactant according to an embodiment of the subject invention (LRO) in different conditions of incubation at pH 7 (A) and pH 10 (B). Oven=45° C., 50% relative humidity; ambient=room temperature.
as §3, §4, §5, §6, §7, §8, §9, §10, §11
Tables 10-11 summarize the pH stability over 4 days for a C12 cationic amino alcohol surfactant according to embodiments of the subject invention, LRO (RO), compared with LAE (RE), where LRO was produced through the coupling of a lauroyl chloride substrate and arginine ethyl ester. Log reductions were measured according to the procedures described above in Example 7.

Salmonella enterica (G-) = assay: Stability study at pH 7 over 4 days, log reduction of S. enterica; type: cell-based; conditions: pH 7, 100 ppm; for Activity Reduction S. enterica (G-) 100 ppm 5 min: loss of log reduction Day 0 to Day 4

| Compound | Surface Tension 1000 ppm ([1]; Table 9) [mN/m] | Log Reduction S. aureus (G+) 200 ppm, 0 min [2] | Log Reduction S. aureus (G+) 200 ppm, 10 min [2] | Log Reduction S. enterica (G-) 200 ppm, 0 min [3] | Log Reduction S. enterica (G-) 200 ppm, 10 min [3] | other results |
| --- | --- | --- | --- | --- | --- | --- |
| CCCCCCCC(=O)NC(CO)Cc1c[nH]cn1 (centres unmarked) [C8 H O] | 57.78 | 0.00 | 0.00 | 0.00 | 0.00 |  |
| CCCCCCCC(=O)NC(CO)CCCNC(=N)N (centres unmarked) [C8 R O] | 32.15 | 0.00 | 0.87 | 0.00 | 0.00 |  |
| CCCCCCCCCC(=O)NC(CO)Cc1c[nH]cn1 (centres unmarked) [C10 H O] | 50.30 | 0.00 | 0.00 | 0.00 | 0.00 |  |
| CCCCCCCCCC(=O)NC(CO)CCCNC(=N)N (centres unmarked) [C10 R O] | 28.30 | 0.00 | 6.30 | 0.00 | 6.30 |  |
| CCCCCCCCCCCC(=O)NC(CO)Cc1c[nH]cn1 (centres unmarked) [C12 H O] | 27.36 | 0.00 | 0.00 | 0.00 | 0.00 |  |
| CCCCCCCCCCCC(=O)NC(CO)CCCCN (centres unmarked) [C12 K O] | 27.82 | 0.00 | 4.60 | 0.00 | 6.16 | Surface Tension 1000 ppm ([1]; Table 8): 27.82 mN/m; Log Reduction 200 ppm, 0 min (Pseudomonas aeruginosa) [4]: 0.54; Log Reduction 200 ppm, 10 min (Pseudomonas aeruginosa) [4]: 6.25 |
| CCCCCCCCCCCC(=O)N[C@@H](CCCNC(=N)N)C(=O)OCC [C12 R E, lauroyl arginine ethyl ester, reference compound] |  |  |  |  |  | Log Reduction S. aureus (G+) 100 ppm, 0 min ([5]; Day 0 Stability): 0.00; Log Reduction S. aureus (G+) 100 ppm, 2 min ([5]; Day 0 Stability): 6.53; Log Reduction S. aureus (G+) 100 ppm, 5 min ([5]; Day 0 Stability): 6.53; Log Reduction S. aureus (G+) 100 ppm, 0 min ([5]; Day 4 Accelerated Stability): 0.00; Log Reduction S. aureus (G+) 100 ppm, 2 min ([5]; Day 4 Accelerated Stability): 0.93; Log Reduction S. aureus (G+) 100 ppm, 5 min ([5]; Day 4 Accelerated Stability): 1.14; Activity Reduction S. aureus (G+) 100 ppm 5 min [5]: 82.54%; Log Reduction S. enterica (G-) 100 ppm, 0 min (Salmonella enterica (G-); Day 0 Stability): 0.00; Log Reduction S. enterica (G-) 100 ppm, 2 min (Salmonella enterica (G-); Day 0 Stability): 6.42; Log Reduction S. enterica (G-) 100 ppm, 5 min (Salmonella enterica (G-); Day 0 Stability): 6.42; Log Reduction S. enterica (G-) 100 ppm, 0 min (Salmonella enterica (G-); Day 4 Accelerated Stability): 0.00; Log Reduction S. enterica (G-) 100 ppm, 2 min (Salmonella enterica (G-); Day 4 Accelerated Stability): 0.00; Log Reduction S. enterica (G-) 100 ppm, 5 min (Salmonella enterica (G-); Day 4 Accelerated Stability): 0.00; Activity Reduction S. enterica (G-) 100 ppm 5 min (Salmonella enterica (G-)): 100.00% |
| CCCCCCCCCCCC(=O)NC(CO)CCCNC(=N)N (centres unmarked) [C12 R O, lauryl argininol alcohol] | 23.75 | 0.00 | 6.24 | 0.00 | 6.20 | Surface Tension 1000 ppm ([1]; Table 8): 23.75 mN/m; Log Reduction 200 ppm, 0 min (Pseudomonas aeruginosa) [4]: 1.85; Log Reduction 200 ppm, 10 min (Pseudomonas aeruginosa) [4]: 6.25; Log Reduction S. aureus (G+) 100 ppm, 0 min ([5]; Day 0 Stability): 0.00; Log Reduction S. aureus (G+) 100 ppm, 2 min ([5]; Day 0 Stability): 2.17; Log Reduction S. aureus (G+) 100 ppm, 5 min ([5]; Day 0 Stability): 6.53; Log Reduction S. aureus (G+) 100 ppm, 0 min ([5]; Day 4 Accelerated Stability): 0.00; Log Reduction S. aureus (G+) 100 ppm, 2 min ([5]; Day 4 Accelerated Stability): 0.76; Log Reduction S. aureus (G+) 100 ppm, 5 min ([5]; Day 4 Accelerated Stability): 6.53; Activity Reduction S. aureus (G+) 100 ppm 5 min [5]: 0.00%; Log Reduction S. enterica (G-) 100 ppm, 0 min (Salmonella enterica (G-); Day 0 Stability): 0.00; Log Reduction S. enterica (G-) 100 ppm, 2 min (Salmonella enterica (G-); Day 0 Stability): 1.32; Log Reduction S. enterica (G-) 100 ppm, 5 min (Salmonella enterica (G-); Day 0 Stability): 2.36; Log Reduction S. enterica (G-) 100 ppm, 0 min (Salmonella enterica (G-); Day 4 Accelerated Stability): 0.00; Log Reduction S. enterica (G-) 100 ppm, 2 min (Salmonella enterica (G-); Day 4 Accelerated Stability): 0.00; Log Reduction S. enterica (G-) 100 ppm, 5 min (Salmonella enterica (G-); Day 4 Accelerated Stability): 0.79; Activity Reduction S. enterica (G-) 100 ppm 5 min (Salmonella enterica (G-)): 66.53% |
| CCCCCCCCCCCCCC(=O)NC(CO)Cc1c[nH]cn1 (centres unmarked) [C14 H O] | 22.77 | 0.00 | 0.00 | 0.00 | 0.00 |  |
| CCCCCCCCCCCCCC(=O)NC(CO)CCCNC(=N)N (centres unmarked) [C14 R O] | 39.54 | 0.00 | 6.36 | 0.00 | 6.11 |  |
| CCCCCCCCCCCCCCCC(=O)NC(CO)CCCNC(=N)N (centres unmarked) [C16 R O] | 37.63 | 0.00 | 4.10 | 0.00 | 2.86 |  |
| linear sophorolipid argininol amide [SLP R O] | 41.89 | 0.00 | 2.23 | 0.00 | 0.00 |  |
